Test results published in patent US4638070A, “Heterocyclic amino-alcohol derivatives” (Continental Pharma, priority 1980, dated 1987).

What was measured:
[1] = Acute toxicity, oral, LD50 (Litchfield and Wilcoxon); settings: mouse, in vivo, fasted male mice, confidence limits p=95% in brackets
Protocol: (1) The acute toxicity was determined on fasted male mice. The tested substances were orally administered and LD50 values (lethal dose for 50% of animals) were calculated according to the method of Litchfield and Wilcoxon (J. Pharmacol. exp. Ther. 96, 94-113, 1949). These LD50 values are given in mg/kg and also, when possible, with their confidence limits for p=95%.

[2] = test system: guinea-pig ileum (histamine contractions); test: Antispasmodic activity in vitro, contractions caused by histamine; settings: added 15 minutes before spasm-producing agent
Protocol: (§1) (4) The antispasmodic activity was measured in vitro, on guinea-pig ileum, the contractions of which were caused by histammne (Hist.), acetylcholine (Achol) or barium chloride (BaCl2). The tested products were added to perfusion bath 15 minutes before the spasm-producing agents.
(§2) The dose is given in micograms (μg) per ml of bath causing complete spasm inhibition.

[3] = test system: guinea-pig ileum (acetylcholine contractions); test: Antispasmodic activity in vitro, contractions caused by acetylcholine; settings: added 15 minutes before spasm-producing agent
Protocol: as §1, §2

femoral artery = test: Vasodilator activity, femoral artery (technique of perfused paw); format: in vivo; parameters: key: O: no action; +: slight activity; ++: effect equal to half the effect of papaverine; +++: effect equal to that of papaverine; ++++: effect higher than that of papaverine; settings: intra-arterial, 30 mg/kg, anaesthetized dog, vs papaverine at same dose
Protocol: (3) The vasodilator activity was measured at the level of femoral artery on anaesthetized dog (technique of perfused paw). The tested substances were given intra-arterially at the rate of 30 mg/kg. Results are expressed with respect to papaverine tested at the same dose.
++: effect equal to half the effect of papaverine.
+++: effect equal to that of papaverine.
++++: effect higher than that of papaverine.

Structure (SMILES) | LD50 [1] [mg/kg] | ANTISPASMODIC ACTIVITY HIST. (dose causing complete spasm inhibition) [2] [μg per ml] | ANTISPASMODIC ACTIVITY ACHOL (dose causing complete spasm inhibition) [3] [μg per ml] | VASODILATOR ACTIVITY (femoral artery)
CC(NCCCCc1ccccc1)C(O)c1ccc2c(c1)CCS2 (stereo not drawn) [No 7, 1-(2,3-dihydro-5-benzo[b]thienyl)-2-(4-phenylbutylamino)-1-propanol] | 860 | – | – | –
CC(NCCCCc1ccccc1)C(O)c1ccc2c(c1)CCCCS2 (stereo not drawn) [No 12, 1-(2,3,4,5-tetrahydrobenzo[b]thiepin-7-yl)-2-(4-phenylbutylamino)-1-propanol] | 5200 | – | – | –
CCCCCCCCNC(C)C(O)c1ccc2c(c1)CC(C)S2 (stereo not drawn) [No 18] | 3350 | – | – | –
CC(NCCCCSc1ccccc1)C(O)c1ccc2c(c1)CCS2 (stereo not drawn) [No 31] | > 4000 | 0.17 | 1.7 | –
CC(C)NC(C)C(O)c1ccc2c(c1)CCS2 (stereo not drawn) [No 33] | 355 | 16.7 | 16.7 | +++
CC(C)NC(C)C(O)c1ccc2c(c1)CCCCS2 (stereo not drawn) [No 38] | 240 | 3.3 | 8.3 | ++
CC(NC1CCCCC1)C(O)c1ccc2c(c1)CCCS2 (stereo not drawn) [No 41] | – | 8.3 | 8.3 | –
CCCCCCCCNC(C)C(O)c1ccc2c(c1)CC(C)CS2 (stereo not drawn) [No 43] | 3300 | 0.8 | 1.7 | +++
CC(NCCOCc1ccccc1)C(O)c1ccc2c(c1)CCCS2 (stereo not drawn) [No 46] | 4000 | 8.3 | 3.3 | +++
CC1CSc2ccc(C(O)C(C)NCCCc3ccccc3)cc2C1 (stereo not drawn) [No 48] | > 4000 | 0.8 | 1.7 | –
CCCCOCCCNC(C)C(O)c1ccc2c(c1)CCCS2 (stereo not drawn) [No 50] | 900 | 1.7 | 1.7 | +++
CC(NC1CC1)C(O)c1ccc2c(c1)CCCS2 (stereo not drawn) [No 51] | – | 8.3 | 16.7 | ++
CC(NC12CC3CC(CC(C3)C1)C2)C(O)c1ccc2c(c1)CCCS2 (stereo not drawn) [No 52] | – | 1.7 | 1.7 | +++
COc1ccc(OCCNC(C)C(O)c2ccc3c(c2)CCCS3)cc1 (stereo not drawn) [No 53] | > 4000 | 3.3 | 1.7 | +++
CC(NCCCN1CCNC1=O)C(O)c1ccc2c(c1)CCCS2 (stereo not drawn) [No 56] | – | > 16.7 | > 16.7 | ++
CC(NCCCN1CCCC1)C(O)c1ccc2c(c1)CCCS2 (stereo not drawn) [No 59] | 1120 | 3.3 | 3.3 | +++
CC1Cc2cc(C(O)C(C)NCCCN3CCCC3)ccc2O1 (stereo not drawn) [No 62] | 885 | > 16.7 | > 16.7 | 0
CC(CCCc1ccccc1)NC(C)C(O)c1ccc2c(c1)CCS2 (stereo not drawn) [No 63] | 1850 | 0.8 | 0.8 | ++

Structure (SMILES) | LD50 [1] [mg/kg] | ANTISPASMODIC ACTIVITY HIST. (dose causing complete spasm inhibition) [2] [μg per ml] | ANTISPASMODIC ACTIVITY ACHOL (dose causing complete spasm inhibition) [3] [μg per ml] | VASODILATOR ACTIVITY (femoral artery)
COc1ccc(OCCNC(C)C(O)c2ccc3c(c2)CC(C)S3)cc1 (stereo not drawn) [No 66] | – | 1.7 | 3.3 | ++
CCCCOCCOCCCNC(C)C(O)c1ccc2c(c1)CCCS2 (stereo not drawn) [No 72] | 880 | 1.7 | 1.7 | ++
COC(=O)CCCCCCCCCCNC(C)C(O)c1ccc2c(c1)CCCS2 (stereo not drawn) [No 73] | > 4000 | 3.3 | 1.7 | +++
CC(NCCCN1CCCC1=O)C(O)c1ccc2c(c1)CCCS2 (stereo not drawn) [No 77] | 235 | 0.8 | 1.7 | 0
Cc1ccc(OCCNC(C)C(O)c2ccc3c(c2)CC(C)S3)cc1 (stereo not drawn) [No 79] | – | 1.7 | 0.8 | –
CC(CCCc1ccccc1)NC(C)C(O)c1ccc2c(c1)CC(C)O2 (stereo not drawn) [No 82] | – | 0.3 | 1.7 | ++
CC(NCCOc1ccc2c(c1)CCC2)C(O)c1ccc2c(c1)CCCS2 (stereo not drawn) [No 83] | > 4000 | 1.7 | 0.8 | +++
CC(=O)Nc1ccc(OCCNC(C)C(O)c2ccc3c(c2)CCCS3)cc1 (stereo not drawn) [No 87] | – | 8.3 | 16.7 | +++
CC(C(O)c1ccc2c(c1)CCCS2)N1CCC(c2ccccc2)CC1 (stereo not drawn) [No 91] | – | 0.8 | 1.7 | +++
CC(NCCCCc1ccccc1)C(OC(=O)C(C)(C)C)c1ccc2c(c1)CCS2 (stereo not drawn) [No 99] | – | 8.3 | 1.7 | –
CC(NCCOc1ccc(NS(C)(=O)=O)cc1)C(O)c1ccc2c(c1)CCS2 (stereo not drawn) [No 103] | – | 3.3 | 16.7 | –
CCCCCCCCNC(CC)C(O)c1ccc2c(c1)CCS2 (stereo not drawn) [No 119] | 1800 | 0.3 | – | ++++
CCCCCCCCNC(C)C(O)c1ccc2c(c1)SCCO2 (stereo not drawn) [No 121] | – | 0.8 | – | +++
CCCCSCCCNC(C)C(O)c1ccc2c(c1)SCCO2 (stereo not drawn) [No 124] | – | 1.7 | – | ++
CCCCSCCCNC(C)C(O)c1ccc2c(c1)CCS2 (stereo not drawn) [No 125] | 3400 | 1.7 | – | ++
CCCCCCCCNC(CC)C(O)c1ccc2c(c1)CCCS2 (stereo not drawn) [No 128] | > 4000 | – | – | –
CCCCCCCCNC(C)C(OC(=O)CCCCCCC)c1ccc2c(c1)CCCS2 (stereo not drawn) [No 136] | > 4000 | – | – | –
CC(C(O)c1ccc2c(c1)CCC2)N1CCC(c2ccccc2)CC1 (stereo not drawn) [No 174] | 2150 | 0.8 | – | +++
